The numbers were not newly measured in patent US8673343B2, “Preparation and administration of jojoba product for reducing weight, fat and blood lipid levels and for the prevention and treatment of cancer” (Yiwu Jiangr Bio-Technology HK Corp., priority 2001, dated 2014), which cites them from elsewhere.

Each structure is given as a SMILES string.

For data set [1] the following is noted: animal and human studies.
The conditions of data set [2]: growing rats, long-term administration of lower doses.

For the compound `CO[C@H]1[C@@H](OC)C[C@@H](O[C@@H]2O[C@H](CO)[C@@H](O)[C@H](O)[C@H]2O)/C(=C\C#N)[C@@H]1O` [simmondsin, 2-(cyanomethylene)-3-hydroxy-4,5-dimethoxycyclohexyl beta-D-glucoside], in data set [1], the “other side effects commonly associated with cancer chemotherapy” value is given as “no other side effects”. Further, in data set [2], the side effects entry is recorded as “without showing any side effects” and the “sustained food intake inhibition” value is on record as “about 20%”.
